Test results published in patent publication US20210317086A1, “Tramadol HBR-Celecoxib Co-Crystal” (Mylan Laboratories Limited, priority 2018, published 2021).

Assay: Indicative stability: storage of the co-crystal at 40° C./75% RH and at 25° C./60% RH for 6 months, analysed by PXRD and HPLC
Type: physicochemical
Protocol: The PXRD measurements were carried out using PANalytical X′Pert PRO powder diffractometer equipped with goniometer of θ/θ configuration and X'Celerator detector. The Cu-anode X-ray tube was operated at 40 kV and 30 mA. The experiments were conducted over the […] of 2.0°-50.0°, 0.030° step size and 50 seconds step time.
In yet another embodiment, physical and chemical stability of 1:1 co-crystal of (rac)-tramadol.HBr-celecoxib sample was determined by storing the sample at 40° C./75% relative humidity (RH) and at 25° C./60% relative humidity (RH) for 6 months as mentioned in below Table 1. The samples were analyzed by PXRD and HPLC for final purity.

With “1:1 co-crystal of (rac)-tramadol hydrobromide and celecoxib” the “HPLC purity (%)” value (at 25° C./60% RH, 1 month) was 99.88%, the PXRD (at 25° C./60% RH, 1 month) was “Stable” and the “HPLC purity (%)” value (at 25° C./60% RH, 2 months) was 99.89%. For the same substance, the PXRD (at 25° C./60% RH, 2 months) was “Stable”, the “HPLC purity (%)” value (at 25° C./60% RH, 3 months) was 99.87% and the PXRD (at 25° C./60% RH, 3 months) was “Stable”. For the same substance, the “HPLC purity (%)” value (at 25° C./60% RH, 6 months) was 99.87%, the PXRD (at 25° C./60% RH, 6 months) was “Stable” and the “HPLC purity (%)” value (at 25° C./60% RH, Initial) was 99.89%. For the same substance, the PXRD (at 25° C./60% RH, Initial) was “Crystalline”, the “HPLC purity (%)” value (at 40° C./75% RH, 1 month) was 99.86% and the PXRD (at 40° C./75% RH, 1 month) was “Stable”. For the same substance, the “HPLC purity (%)” value (at 40° C./75% RH, 2 months) was 99.89%, the PXRD (at 40° C./75% RH, 2 months) was “Stable” and the “HPLC purity (%)” value (at 40° C./75% RH, 3 months) was 99.88%. For the same substance, the PXRD (at 40° C./75% RH, 3 months) was “Stable”, the “HPLC purity (%)” value (at 40° C./75% RH, 6 months) was 99.86% and the PXRD (at 40° C./75% RH, 6 months) was “Stable”. For the same substance, the “HPLC purity (%)” value (at 40° C./75% RH, Initial) was 99.89%, the PXRD (at 40° C./75% RH, Initial) was “Crystalline” and the “physical and chemical stability” value (conclusion from 6 months storage at 40° C./75% RH and 25° C./60% RH) was “physically and chemically stable”. The “change in HPLC purity and PXRD pattern on storage” value (stored for 6 months at 40° C./75% RH and at 25° C./60% RH) was “no change in HPLC purity and PXRD pattern”.
